How the values were obtained:
[1] = system: SK-N-DZ MYCN-amplified neuroblastoma cell line; experiment: Secondary validation screen of lethal miRNAs, additional cell line, cell viability; type: cell-based; settings: miRNA mimic alone
Method: (§1) Each of the cell lines were reverse transfected in 384-well plate format with 25 nM of a miRNA from the Dharmacon miRNA mimic or inhibitor libraries (version 16.0) using liquid-handling robot Calliper Sciclone ALH3000 according to the conditions described in Table 3. After 24 hours, media was changed using BioTek 406, and 144 hours post-transfection, cell viability was determined using CellTiter-Glo luminescent assay (Promega) at 1:2 dilution. Luminescence measurements were taken on the Synergy H4 high-throughput multimode microplate reader. All screens were performed in duplicates.
(§2) The secondary validation screens were performed in accordance with the genome-wide screens described in Example 1 and Example 2, respectively, with the exception that an additional MYCN-amplified neuroblastoma cell line (SK-N-DZ) was added to each screen.
(§3) Furthermore, five additional non-active miRNAs discovered to have no measureable effect across all treatment groups of the genome-wide screen (‘non-lethal’ miRNAs) were included as negative controls.

KELLY cells [2] = experiment: Primary functional miRNA mimic screen, CellTiter-Glo cell viability; type: cell-based; settings: miRNA mimic 25 nM alone, 144 hours post-transfection
Description: Breast cancer cell lines (MDA-MB-231, MDA-MB-468, SK-BR-3; BT474) and prostate cancer cell lines (PC3, DU145) were obtained from American Type Culture Collection (ATCC). Neuroblastoma cell lines (KELLY, SHEP) were received from Children's Cancer Institute (CCIA). The KELLY cells were selected as a MYCN amplified neuroblastoma cell line and the SHEP cells were selected as a MYCN wild-type neuroblastoma cell line. All breast and prostate cancer cell lines were cultivated in RPMI media supplemented with 10% FCS, HEPES, and insulin. […] Each of the cell lines were reverse transfected in 384-well plate format with 25 nM of a miRNA from the Dharmacon miRNA mimic or inhibitor libraries (version 16.0) using liquid-handling robot Calliper Sciclone ALH3000 according to the conditions described in Table 3. […] Luminescence measurements were taken on the Synergy H4 high-throughput multimode microplate reader. All screens were performed in duplicates. Raw viability was normalised to a nontargeting control (OTP) or mock wells, and death genes or controls inducing varying levels of death were used to monitor transfection efficiency and to define dynamic range in each screen (FIG. 1). To define screen hits, normalised viability scores were binned in the following manner: CV1 bin included candidates with viability >=0.8; […] Only LC candidates were defined as screen hits.

SHEP cells [3] = experiment: as above; type: cell-based; settings: miRNA mimic 25 nM alone, 144 hours post-transfection
Description: Breast cancer cell lines (MDA-MB-231, MDA-MB-468, SK-BR-3; BT474) and prostate cancer cell lines (PC3, DU145) were obtained from American Type Culture Collection (ATCC). Neuroblastoma cell lines (KELLY, SHEP) were received from Children's Cancer Institute (CCIA). The KELLY cells were selected as a MYCN amplified neuroblastoma cell line and the SHEP cells were selected as a MYCN wild-type neuroblastoma cell line.
All breast and prostate cancer cell lines were cultivated in RPMI media supplemented with 10% FCS, HEPES, and insulin. The neuroblastoma cell lines, KELLY, SHEP, were grown in 10% FCS/RPMI and 10% FCS/DMEM, respectively.
as §1
Raw viability was normalised to a nontargeting control (OTP) or mock wells, and death genes or controls inducing varying levels of death were used to monitor transfection efficiency and to define dynamic range in each screen (FIG. 1). To define screen hits, normalised viability scores were binned in the following manner: CV1 bin included candidates with viability >=0.8; CV2 bin included candidates with viability <0.8 and >0.5, and LC bin was assigned to candidates with normalised viability <=0.5. Only LC candidates were defined as screen hits.

SHEP cells [4] = experiment: Secondary validation screen of lethal miRNAs, cell viability; type: cell-based; settings: miRNA mimic alone
Method: as §1, §2, §3

KELLY cells [5] = experiment: as above; type: cell-based; settings: miRNA mimic alone
Method: as §1, §2, §3

KELLY cells [6] = experiment: Secondary validation screen of synthetic lethal miRNAs with low dose IC30 chemotherapy, cell viability; type: cell-based; settings: for synthetic lethality with chemotherapy: in both Kelly and SKNDZ MYCN-amplified cells, secondary screen; for Secondary screen Viability (% of control) Kelly DXR: miRNA mimic + low dose IC30 doxorubicin; for Secondary screen Viability (% of control) Kelly VCR: miRNA mimic + low dose IC30 vincristine; for Secondary screen Viability (% of control) Kelly Vehicle: miRNA mimic + vehicle
Method: (§4) KELLY cells were grown in 10% FCS/RPMI as described in Example 1 and reverse transfected in 384-well plate format with 25 nM of a miRNA from the Dharmacon microRNA mimic Library (version 16.0) using liquid-handling robot Calliper Sciclone ALH3000 according to the conditions described in Table 3. After 24 hours, media was changed using a BioTek 406. Media was again changed after 48 hours and 96 hours using a BioTek 406, and at each of those time points low dose IC30 of vincristine or doxorubicin was added to the culture. 144 hours post-transfection, cell viability was determined using CellTiter-Glo luminescent assay (Promega) at 1:2 dilution. Luminescence measurements were taken on the Synergy H4 high-throughput multimode microplate reader as described in Example 1. All screens were performed in duplicates. The experimental design and timeline for this screen are illustrated in FIGS. 5 and 6, respectively.
as §2, §3

KELLY cells [7] = experiment: Primary miRNA mimic screen in combination with low dose IC30 of vincristine or doxorubicin, cell viability; type: cell-based; settings: for Primary screen Viability (% of control) Kelly DXR: miRNA mimic 25 nM + low dose IC30 doxorubicin; for Primary screen Viability (% of control) Kelly VCR: miRNA mimic 25 nM + low dose IC30 vincristine; for Primary screen Viability (% of control) Kelly Vehicle: miRNA mimic 25 nM + vehicle
Method: To systematically identify miRNAs that affect viability and survival of neuroblstoma cells in combination with chemotherapy, a further functional miRNA screen was performed using the 1200 miRNAs from the miRIDIAN miRNA mimic Library (version 16.0; Dharmacon) in combination with low dose IC30 of vincristine or doxorubicin in the two neuroblastoma cancer cell lines. In doing so, the inventors identified miRNAs which result in a lethal phenotype to neuroblastoma cells when administered in combination with low dose IC30 chemotherapy (hereinafter referred to as ‘synthetic lethal’ miRNAs). […] After 24 hours, media was changed using a BioTek 406. […] Luminescence measurements were taken on the Synergy H4 high-throughput multimode microplate reader as described in Example 1. All screens were performed in duplicates.

[8] = system: SK-N-DZ MYCN-amplified neuroblastoma cell line; experiment: Secondary validation screen of synthetic lethal miRNAs with low dose IC30 chemotherapy, additional cell line; type: cell-based; settings: for Additional cell line Viability (% of control) SKNDZ DXR: miRNA mimic + low dose IC30 doxorubicin; for Additional cell line Viability (% of control) SKNDZ VCR: miRNA mimic + low dose IC30 vincristine; for Additional cell line Viability (% of control) SKNDZ Vehicle: miRNA mimic + vehicle
Method: as §4, §2, §3

IMR-90 cells = experiment: Cell toxicity screen of synthetic lethal miRNAs in non-cancer cells; settings: for cell viability in non-cancer cells, DXR (% of control): IMR-90, miRNA + low dose IC30 doxorubicin; for cell viability in non-cancer cells, VCR (% of control): IMR-90, miRNA + low dose IC30 vincristine; for cell viability in non-cancer cells, Media (% of control): IMR-90, miRNA alone (media); for activity in IMR90 cells: even when administered in combination with a chemotherapeutic agent
Method: The cell toxicity screens were performed in IMR-90 cells (normal human fibroblast cells, ATCC).

Substance | Additional cell line Viability (% of control) SKNDZ [1] | Primary screen Viability (% of control) KELLY (KELLY cells [2]) | Primary screen Viability (% of control) SHEP (SHEP cells [3]) | Secondary screen Viability (% of control) SHEP (SHEP cells [4]) | Secondary screen Viability (% of control) KELLY (KELLY cells [5]) | synthetic lethality with chemotherapy (KELLY cells [6]) | Secondary screen Viability (% of control) Kelly DXR (KELLY cells [6]) | Secondary screen Viability (% of control) Kelly VCR (KELLY cells [6]) | Secondary screen Viability (% of control) Kelly Vehicle (KELLY cells [6]) | Primary screen Viability (% of control) Kelly DXR (KELLY cells [7]) | Primary screen Viability (% of control) Kelly VCR (KELLY cells [7]) | Primary screen Viability (% of control) Kelly Vehicle (KELLY cells [7]) | Additional cell line Viability (% of control) SKNDZ DXR [8] | Additional cell line Viability (% of control) SKNDZ VCR [8] | Additional cell line Viability (% of control) SKNDZ Vehicle [8] | cell viability in non-cancer cells, DXR (% of control) (IMR-90 cells) | cell viability in non-cancer cells, VCR (% of control) (IMR-90 cells) | cell viability in non-cancer cells, Media (% of control) (IMR-90 cells) | activity in IMR90 cells (IMR-90 cells)
hsa-miR-1262 (AUGGGUGAAUUUGUAGAAGGAU; chemistry not given here; listed as Homo sapiens) | 13 % of control | 8 % of control | 31 % of control | 42 % of control | 8 % of control | – | – | – | – | – | – | – | – | – | – | – | – | – | –
hsa-miR-491-3p (guide CUUAUGCAAGAUUCCCUUCUAC; chemistry not given here; listed as Homo sapiens) | 47 % of control | 12 % of control | 26 % of control | 34 % of control | 12 % of control | – | – | – | – | – | – | – | – | – | – | – | – | – | –
hsa-miR-148b-5p (AAGUUCUGUUAUACACUCAGGC; chemistry not given here; listed as Homo sapiens) | 21 % of control | 5 % of control | 20 % of control | 34 % of control | 8 % of control | – | – | – | – | – | – | – | – | – | – | – | – | – | –
hsa-miR-550a-3p (guide UGUCUUACUCCCUCAGGCACAU; chemistry not given here; listed as Homo sapiens) | 82 % of control | 4 % of control | 61 % of control | 94 % of control | 15 % of control | – | – | – | – | – | – | – | – | – | – | – | – | – | –
hsa-miR-634 (guide AACCAGCACCCCAACUUUGGAC; chemistry not given here; listed as Homo sapiens) | 41 % of control | 7 % of control | 8 % of control | 12 % of control | 13 % of control | – | – | – | – | – | – | – | – | – | – | – | – | – | –
hsa-miR-1231 (GUGUCUGGGCGGACAGCUGC; chemistry not given here; listed as Homo sapiens) | 98 % of control | 36 % of control | 15 % of control | 46 % of control | 48 % of control | – | – | – | – | – | – | – | – | – | – | – | – | – | –
hsa-miR-876-3p (guide UGGUGGUUUACAAAGUAAUUCA; chemistry not given here; listed as Homo sapiens) | 48 % of control | 6 % of control | 94 % of control | 51 % of control | 6 % of control | – | – | – | – | – | – | – | – | – | – | – | – | – | –
hsa-miR-380-3p (UAUGUAAUAUGGUCCACAUCUU; chemistry not given here; listed as Homo sapiens) | – | – | – | – | – | substantial synthetic lethality | 38 % of control | 76 % of control | 90 % of control | 20 % of control | 63 % of control | 94 % of control | 30 % of control | 80 % of control | 100 % of control | 96 % of control | 117 % of control | 99 % of control | minimal activity
hsa-miR-485-3p (guide GUCAUACACGGCUCUCCUCUCU; chemistry not given here; listed as Homo sapiens) | – | – | – | – | – | substantial synthetic lethality | 47 % of control | 53 % of control | 85 % of control | 23 % of control | 52 % of control | 72 % of control | 69 % of control | 68 % of control | 113 % of control | 76 % of control | 80 % of control | 79 % of control | minimal activity
hsa-miR-1321 (CAGGGAGGUGAAUGUGAU; chemistry not given here; listed as Homo sapiens) | – | – | – | – | – | substantial synthetic lethality | 7 % of control | 24 % of control | 50 % of control | 4 % of control | 18 % of control | 42 % of control | 21 % of control | 45 % of control | 64 % of control | 23 % of control | 23 % of control | 48 % of control | –

— patent publication US20190300882A1, “METHODS OF TREATING NEUROBLASTOMA AND REAGENTS THEREFOR” (GARVAN INSTITUTE OF MEDICAL RESEARCH, priority 2016, published 2019)
